Measurements: US20250339425A1 (Northeastern University, priority 2024, published 2025)
Where two headings read alike, the source gives them in different places.

Tests used:
[1] = test system: BzATP-induced release of IL-1β by human monocytic THP-1 cells; test: BzATP-induced release of IL-1β by LPS-primed monocytic THP-1 cells (ELISA); conditions: for inhibitory effect on IL-1β release at the lowest concentration tested: 1 nM; for inhibition of BzATP-induced release of IL-1β: LPS-primed THP-1 cells, ACh at 10 μM
Experimental: Monocytic THP-1 cells were primed with lipopolysaccharide (LPS; 1 μg/ml, 5 hours). Thereafter, the P2X7 receptor agonist BzATP (100 μM) was added for another 40 minutes to trigger IL-1β release. […] The IL-1β concentrations obtained after stimulation with BzATP+solvent were set to 100% and all other values were calculated accordingly. Data are presented as individual data points, the bar represents the median, and whiskers encompass the 25th to 75th percentile. *p≤0.05, different from LPS-primed cells stimulated with BzATP alone. Friedman test followed by the Wilcoxon signed-rank test.
The new compounds were tested for the ability to down-regulate the ATP-mediated release of 10 IL-1β by human monocytic THP-1 cells.
Monocytic THP-1 cells were primed with lipopolysaccharide (LPS, 1 μg/ml) for 5 hours and further stimulated them with BzATP (100 μg/ml) for 40 minutes to induce the maturation and release of IL-1β.
The monocytic THP-1 cell line was obtained from the German Collection of Microorganisms and Cell Cultures (Braunschweig, Germany). […] Thereafter, 0.5×10^6 cells/0.5 ml and per well were seeded in 48-well plates (Greiner Bio-One, Frickenhausen, Germany) as described previously.^27 The cells were primed with LPS (1 μg/ml; E. coli O26:B6, Merck, Darmstadt, Germany, Cat #L2654) for 5 h under 5% CO2 atmosphere at 37° C. […] After the treatment, cells were spun down (500 g, 8 min, 4° C.) to collect the cell-free supernatants, that were stored at −20° C. for later measurements of IL-1β and lactate dehydrogenase (LDH) activity.
To measure IL-1β concentrations in the cell-free supernatants the Human IL-1 beta/IL-1F2 DuoSet enzyme-linked immunosorbent assay (ELISA) from R&D Systems (Cat #DY201) was used according to the supplier's instructions. In parallel, LDH activity was measured to test for cell viability at the end of the cell culture experiments, using the CytoTox 96® Non-Radioactive Cytotoxicity Assay (Promega, Madison, WI, United States; Cat #G1780) according to the supplier's instructions.
Results obtained in the BzATP-induced IL-1β release experiments were analyzed using SPSS (Version 27, IBM, Armonk, NY, United States). The data were analyzed first by the Friedman test followed by the Wilcoxon signed-rank test. […] The number (n) of individual experiments is indicated in the Figures and refers to independent experiments, which were performed on different days with different cell passages.

human α7 nAChR = human α7 nAChR (Homo sapiens, UniProt P36544)
human α7 nAChR, sequence (P36544 23-502): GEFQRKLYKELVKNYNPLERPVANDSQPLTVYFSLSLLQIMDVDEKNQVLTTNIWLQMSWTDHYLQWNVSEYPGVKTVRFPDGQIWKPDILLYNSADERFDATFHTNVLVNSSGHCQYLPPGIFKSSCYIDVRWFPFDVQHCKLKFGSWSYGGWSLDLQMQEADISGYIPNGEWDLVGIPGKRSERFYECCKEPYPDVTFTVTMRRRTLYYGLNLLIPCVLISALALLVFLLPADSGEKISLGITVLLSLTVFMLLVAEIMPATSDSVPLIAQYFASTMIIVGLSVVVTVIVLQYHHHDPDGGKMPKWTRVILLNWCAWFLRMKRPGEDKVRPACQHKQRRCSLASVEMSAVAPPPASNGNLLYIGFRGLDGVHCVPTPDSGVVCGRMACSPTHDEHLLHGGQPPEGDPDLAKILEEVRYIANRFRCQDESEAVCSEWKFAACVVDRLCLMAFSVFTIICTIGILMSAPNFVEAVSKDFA

α9 nAChR [2] = target: T1, α9 nAChR (Homo sapiens, UniProt Q9UGM1); conditions: for EC50: read-out: α9 EC50
T1 sequence (Q9UGM1 26-479 limits assumed): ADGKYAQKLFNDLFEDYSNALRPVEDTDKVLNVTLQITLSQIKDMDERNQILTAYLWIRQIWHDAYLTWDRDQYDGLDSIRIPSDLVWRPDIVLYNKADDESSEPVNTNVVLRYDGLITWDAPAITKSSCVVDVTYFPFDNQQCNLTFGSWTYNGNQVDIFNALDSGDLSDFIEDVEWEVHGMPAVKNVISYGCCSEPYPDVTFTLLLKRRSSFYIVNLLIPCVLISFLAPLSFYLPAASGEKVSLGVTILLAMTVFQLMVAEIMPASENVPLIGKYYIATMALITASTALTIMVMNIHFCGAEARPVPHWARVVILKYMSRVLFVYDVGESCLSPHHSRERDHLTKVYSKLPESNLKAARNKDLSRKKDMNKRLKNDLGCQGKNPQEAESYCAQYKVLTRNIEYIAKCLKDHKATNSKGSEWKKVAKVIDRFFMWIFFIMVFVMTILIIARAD

[3] = In vitro metabolic stability in rat hepatocytes
[4] = In vitro metabolic stability in pooled human liver microsomes
[5] = test system: CFA-induced paw edema in mice; test: CFA-induced paw edema in mice; assay type: in vivo, mouse; conditions: CFA-treated mice; 10 mg/kg differing from vehicle
[6] = test system: locomotor activity of mice; test: Locomotor activity of mice (photocell activity cages); assay type: in vivo, mouse; conditions: 10 mg/kg, compared to vehicle-treated animals
Experimental: Mechanical thresholds were elevated by treatments with II (FIGS. 5A-5D). […] Therefore, the data in FIGS. 5A-5D are the mean±SD scores for each condition. Statistical analysis was conducted using a Kruskal-Wallis test followed by Mann-Whitney rank sum test at each time point following II treatment.
Interruptions of the photocell beams (two banks of eight cells each) were then recorded for the next 60 min. Data are expressed as number of photocell interruptions.

[7] = test system: CFA-induced inflammatory pain in mice; conditions: mouse, in vivo
Experimental: Experiments were conducted using adult (10-15 weeks) male and female C57BL/6J mice from Jackson Laboratory (Bar Harbor ME, USA): α7 WT and KO mice on a C57BL/6J background. Mice null for the α7 subunit along with their WT littermates were initially procured from Jackson Laboratory and later bred in an approved animal care facility at Virginia Commonwealth University. The breeding scheme involved crossing heterozygous mice and backcrossing progeny for at least 12 to 15 generations, to control for irregularities that might occur crossing solely mutant animals, to generate both mutant and WT animals. […] Then mice were retrieved from the vivarium and housed (4-5 mice per cage) for the duration of the study in a temperature- and humidity-controlled out-of-vivarium space on the same light/dark cycle. They were given ad libitum food and water. All experiments were performed during the light cycle.
Mice were injected intraplantarly with 20 μl of CFA (50%, diluted in mineral oil; Sigma-Aldrich). Mechanical sensitivity (see the measurement of the von Frey test) was measured before and 3 days after CFA injection.
The mechanical threshold was expressed as log 10 of 10× force (in milligrams), indicating the force of the von Frey hair to which the animal reacted (paw withdrawn, licking, or shaking). All behavioral testing on animals was performed in a blinded manner.

α9 nAChR [8] = target: T1, α9 nAChR; test: cell-based
α9α10 nAChR = target: T2, α9α10 nAChR (Homo sapiens, UniProt Q9GZZ6+Q9UGM1); test: Inhibition of ACh-evoked currents, co-application with 60 μM ACh, oocytes expressing α9α10; assay type: cell-based; conditions: co-applied with 60 μM ACh; unit not printed for these values (α9 values in μM); read-out: IC50 as antagonist on α9α10
T2 construct: expressed in transfected cells; host or cells: Xenopus laevis oocytes injected with in vitro transcribed RNA
T2 sequence (Q9UGM1 26-479 limits assumed): as above
T2 sequence (Q9GZZ6 25-450): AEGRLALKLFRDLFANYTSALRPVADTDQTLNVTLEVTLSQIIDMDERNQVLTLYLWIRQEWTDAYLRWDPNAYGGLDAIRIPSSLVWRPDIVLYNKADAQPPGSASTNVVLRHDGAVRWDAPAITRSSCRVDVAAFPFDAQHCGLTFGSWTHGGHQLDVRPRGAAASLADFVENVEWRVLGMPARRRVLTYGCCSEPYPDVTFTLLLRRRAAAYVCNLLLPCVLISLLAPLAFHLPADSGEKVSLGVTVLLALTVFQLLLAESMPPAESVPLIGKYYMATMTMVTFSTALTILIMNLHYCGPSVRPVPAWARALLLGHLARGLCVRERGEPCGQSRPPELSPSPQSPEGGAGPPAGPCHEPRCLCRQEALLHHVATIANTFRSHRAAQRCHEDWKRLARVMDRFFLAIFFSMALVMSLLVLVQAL
Experimental: (§1) FIGS. 13A-13B show inhibition concentration-response studies for chiral diMPP compounds (2R)PA-diMPP (8) and (2S)PA-diMPP (9), identified as α9 and α9α10 antagonists.
(§2) Experimental responses were measured relative to the preceding ACh control response. […] The transition from agonist to antagonist behavior in α7 to α9* nAChRs indicates a slightly bigger dialkyl tail on nitrogen, or perhaps more importantly, the asymmetry of the groups and potential for multiple rotamers is important for α9 agonism, while chirality is more important for α7 selectivity.
(§3) Two-electrode voltage-clamp experiments were conducted using OpusXpress 6000A (Molecular Devices, Union City CA, USA). Both the voltage and current electrodes were filled with 3 M KCl. Oocytes were voltage-clamped at −60 mV at room temperature. The oocytes were perfused with Ringer's solution (115 mM NaCl, 2.5 mM KCl, 1.8 mM CaCl2), 10 mM HEPES, 1 μM atropine, pH 7.2) at 2 ml/min. […] Drug applications were 12 s in duration followed by 181 s washout periods.

α9 nAChR [9] = target: T1, α9 nAChR; test: Inhibition of ACh-evoked currents, co-application with 60 μM ACh, oocytes expressing α9; assay type: cell-based; set-up: expressed in transfected cells; host or cells: Xenopus laevis oocytes injected with in vitro transcribed RNA; conditions: co-applied with 60 μM ACh; read-out: IC50 as antagonist on α9
Experimental: as §1, §2, §3

[10] = Table 1, peak current, relative to ACh maximum
[11] = Table 4, chiral EMPPs and diMPPs
[12] = Table 1, unit not given (0.23 as 230 nM)
[13] = Table 1, net charge, relative to ACh maximum
[14] = read-out: α7 EC50, Table 1, unit inferred
[15] = read-out: α7 EC50, Table 4, unit inferred
[16] = read-out: α7 EC50, Table 2, unit inferred

Structure (SMILES)	inhibition of BzATP-induced release of IL-1β [1]	α9 Imax (α9 nAChR [2]; [10])	α9 Imax (α9 nAChR [2]; [11])	EC50 (α9 nAChR [2]; [12]) [µM]	EC50 (α9 nAChR [2]; Table 4, unit inferred) [µM]	α7 Imax (human α7 nAChR; [13])	α7 Imax (human α7 nAChR; Table 4)	EC50 (human α7 nAChR; [14]) [µM]	EC50 (human α7 nAChR; [15]) [µM]	receptor selectivity α9 vs α7 (α9 nAChR [2])	α9 Imax (α9 nAChR [2]; Table 2, chiral compounds)	EC50 (α9 nAChR [2]; Table 2, unit inferred) [µM]	α7 Imax (human α7 nAChR; Table 2, chiral compounds)	EC50 (human α7 nAChR; [16]) [µM]	other results
CC[N+]1(C)CCN(c2ccc(C#N)cc2)C[C@H]1C (stereo partly drawn) [(2R)r/s-pCN-EMPP]	significantly inhibited	–	–	–	–	–	–	–	–	–	–	–	–	–	inhibitory effect on IL-1β release at the lowest concentration tested [1]: moderate but significant inhibitory effects
CC[N+]1(C)CCN(c2ccc(C#N)cc2)CC1C [(2S)r/s-pCN-EMPP]	significantly inhibited	–	–	–	–	–	–	–	–	–	–	–	–	–	EC50 (human α7 nAChR): 26.6 ± 9.6 µM
CC[N+]1(C)CCN(c2ccc(C(=O)Nc3cccc(C)n3)cc2)CC1 [Compound 3f, reference compound]	–	1.19 ± 0.03	1.19 ± 0.03	0.51 ± 0.07	0.51 ± 0.07	0.40 ± 0.02	0.40 ± 0.02	6.1 ± 1.1	6.1 ± 1.1	–	–	–	–	–	plasma protein binding (Plasma protein binding): 32%; clearance [3]: low clearance; clearance [4]: low clearance
CC[N+]1(CC)CCN(c2ccc(NC(=O)c3cccc(C)n3)cc2)CC1.[I-] [Compound I, 1,1-Diethyl-4-(4-(6-methylpicolinamido)phenyl)piperazin-1-ium iodide]	–	1.24 ± 0.04	–	1.63 ± 0.2	–	0.14 ± 0.004	–	4.68 ± 0.54	–	–	–	–	–	–	α9 Imax (α9 nAChR [2]; Table 3, reverse amide GATs): 1.01 ± 0.03; EC50 (α9 nAChR [2]; Table 3, unit not printed (text gives 0.086 as 86 nM)): 0.23 ± 0.034 µM; α7 Imax (human α7 nAChR; Table 3): 0.41 ± 0.025; EC50 (human α7 nAChR; read-out: α7 EC50, Table 3, unit inferred): 78.3 ± 11.3 µM
CC[N+]1(C)CCN(c2ccc(NC(=O)c3cccc(C)n3)cc2)CC1 [Compound II, 1-Ethyl-1-methyl-4-(4-(6-methylpicolinamido)phenyl)piperazin-1-ium iodide]	–	1.01 ± 0.03	–	0.23 ± 0.034	–	0.41 ± 0.025	–	78.3 ± 11.3	–	–	–	–	–	–	paw edema [5]: significantly reduced paw edema; locomotor activity [6]: did not significantly alter locomotor activity; type of activity at α9 / α9* nAChR (α9 nAChR [2]): full agonist; mechanical thresholds at the 72 h time point [7]: no significant effects; plasma protein binding (Plasma protein binding): 54%; clearance [3]: low clearance; clearance [4]: low clearance
CC[N+]1(C)CCN(c2ccc(NC(C)=O)cc2)CC1 [Compound III, 4-(4-Acetamidophenyl)-1-ethyl-1-methylpiperazin-1-ium Iodide]	–	0.75 ± 0.04	–	2.27 ± 0.49	–	–	–	–	–	–	–	–	–	–	increase in potency relative to ACh (α9 nAChR [2]; α9): 113 fold; EC50 (α9 nAChR [8]): 0.23 µM
CC[N+]1(C)CCN(c2ccc(C(=O)Nc3cccc(C)n3)cc2)C[C@H]1C (stereo partly drawn) [Compound IV-a, (2R)-1-ethyl-1,2-dimethyl-4-(4-((6-methylpyridin-2-yl)carbamoyl)phenyl)piperazin-1-ium iodide]	significantly inhibited	–	0.052 ± 0.013	–	1.93 ± 2.25	–	0.55 ± 0.02	–	7.16	selective towards α7	0.0521 ± 0.013	1.93 ± 2.25	0.548 ± 0.02	7.16 ± 1.29	inhibitory effect on IL-1β release at the lowest concentration tested [1]: moderate but significant inhibitory effects
Cc1cccc(NC(=O)c2ccc(N3CC[N+](C)(C)[C@@H](C)C3)cc2)n1 [Compound IV-e]	significantly inhibited	–	0.04 ± 0.005	–	0.8 ± 0.6	–	0.397 ± 0.01	–	3.49 ± 0.35	selective for α7	0.04 ± 0.005	0.8 ± 0.6	0.397 ± 0.011	3.49 ± 0.35	IC50 (α9α10 nAChR): 4.33 ± 1.14 µM; type of activity at α9 / α9* nAChR (α9 nAChR [2]): antagonists of the alpha 9 nicotinic acetylcholine receptor; type of activity at α9 / α9* nAChR (α9 nAChR [2]; listed as (2S)PA-diMPP): lost nearly all agonist activity for α9* receptors; antagonism of the effect of ACh on IL-1β release ([1]; all concentrations investigated (1 nM to 100 μM), ACh 10 μM): significantly antagonized the effect of ACh; IC50 (α9 nAChR [9]): 0.24 ± 0.11 µM
CC[N+]1(C)CCN(c2ccc(C(=O)Nc3cccc(C)n3)cc2)C[C@@H]1C (some centres unmarked) [IV-b]	significantly inhibited	–	0.670 ± 0.02	–	2.09 ± 0.63	–	0.24 ± 0.004	–	7.1 ± 0.49	selective towards α9	0.670 ± 0.02	2.09 ± 0.63	0.238 ± 0.004	7.1 ± 0.49	–
